Experimental data reported in patent US20150374666A1, “AQUEOUS LIQUID COMPOSITION INCLUDING HIGH CONCENTRATION OF L-HISTIDINE” (AJINOMOTO CO., INC., priority 2013, published 2015).

Assay: solubility of histidine added to acidic aqueous solution, left standing at room temperature for 24 hr
Format: physicochemical
Experimental: (§1) Acidic substances (acetic acid, phosphoric acid, citric acid, malic acid, or tartaric acid) in the amounts indicated in Table 1 were added to and dissolved in water at 80 to 100° C. to prepare acidic aqueous solutions. Then, to the prepared acidic aqueous solutions was added histidine (HIS) in the amounts indicated in Table 1, and the mixtures were thoroughly stirred. The mixtures were left standing at room temperature for 24 hr, and the solubility of histidine was examined.
Acidic substances (citric acid, malic acid or tartaric acid) in the amounts indicated in Table 2 were added to and dissolved in water at 80 to 100° C. to prepare acidic aqueous solutions. Then, to the prepared acidic aqueous solutions was added histidine (HIS) in the amounts indicated in Table 2 to a concentration of not less than 45 wt %, and the mixtures were thoroughly stirred. The mixtures were left standing at room temperature for 24 hr, and the solubility of histidine was examined. In Table 2, “-” in the pH column means unmeasurable. In Table 2, the composition with *2 was prepared after preparation of the composition with *1, by reducing the amount of water by evaporation under reduced pressure.
Citric acid in the amount indicated in Tables 3 to 5 were added to and dissolved in water at 80 to 100° C. to prepare acidic aqueous solutions. Then, to the prepared acidic aqueous solutions was added histidine (HIS) in the amounts indicated in Tables 3 to 5, and the mixtures were thoroughly stirred. The mixtures were left standing at room temperature for 24 hr, and the solubility of histidine was examined. In Table 5, the composition with *2 was prepared after preparation of the composition with *1, by reducing the amount of water by evaporation under reduced pressure.
as §1, with “substances (citric acid or” for “substances (acetic acid, phosphoric acid, citric acid,”, “malic” for “malic acid, or tartaric”, “Table 6 and 7” for “Table 1”, “histidine” for “histidine (HIS)”, “Table 6 and 7 to a concentration of 20 wt % or 30 wt %,” for “Table 1,”

preparation of liquid composition having a histidine concentration of not less than 47.4 wt % (0.56 part by weight of citric acid or malic acid per 1 part by weight of histidine): could not be prepared | solubility (Table 1: citric acid 60 g, water 50 g, His 90 g, acidic substance/HIS 0.67 W/W, pH before His addition 0.40, HIS concentration 45.0 % (W/W) in liquid, room temperature 24 hr): ∘ | solubility (Table 1: citric acid 65 g, water 50 g, His 100 g, acidic substance/HIS 0.65 W/W, pH before His addition 0.30, HIS concentration 46.5 % (W/W) in liquid, room temperature 24 hr): ∘ | solubility (Table 1: citric acid 80 g, water 50 g, His 120 g, acidic substance/HIS 0.67 W/W, pH before His addition 0.10, HIS concentration 48.0 % (W/W) in liquid, room temperature 24 hr): ∘ | solubility (Table 1: malic acid 60 g, water 50 g, His 90 g, acidic substance/HIS 0.67 W/W, pH before His addition 0.40, HIS concentration 45.0 % (W/W) in liquid, room temperature 24 hr): ∘ | solubility (Table 1: tartaric acid 60 g, water 50 g, His 90 g, acidic substance/HIS 0.67 W/W, pH before His addition 0.20, HIS concentration 45.0 % (W/W) in liquid, room temperature 24 hr): ∘ | solubility (Table 2 (*1): citric acid 60 g, water 50 g, His 90 g, acidic substance/HIS 0.67 W/W, pH before His addition 0.40, HIS concentration 45.0 % (W/W) in liquid, room temperature 24 hr): ∘ | solubility (Table 2 (*2, water reduced by evaporation under reduced pressure from *1): citric acid 60 g, water 10 g, His 90 g, acidic substance/HIS 0.67 W/W, HIS concentration 56.3 % (W/W) in liquid): ∘ | solubility (Table 2 (*2, water reduced by evaporation under reduced pressure from *1): citric acid 60 g, water 20 g, His 90 g, acidic substance/HIS 0.67 W/W, HIS concentration 52.9 % (W/W) in liquid): ∘ | solubility (Table 2: citric acid 65 g, water 50 g, His 100 g, acidic substance/HIS 0.65 W/W, pH before His addition 0.30, HIS concentration 46.5 % (W/W) in liquid, room temperature 24 hr): ∘ | solubility (Table 2: citric acid 80 g, water 50 g, His 120 g, acidic substance/HIS 0.67 W/W, pH before His addition 0.10, HIS concentration 48.0 % (W/W) in liquid, room temperature 24 hr): ∘ | solubility (Table 2: citric acid 120 g, water 50 g, His 180 g, acidic substance/HIS 0.67 W/W, HIS concentration 51.4 % (W/W) in liquid, room temperature 24 hr): ∘ | solubility (Table 2: malic acid 60 g, water 50 g, His 90 g, acidic substance/HIS 0.67 W/W, pH before His addition 0.40, HIS concentration 45.0 % (W/W) in liquid, room temperature 24 hr): ∘ | solubility (Table 2: malic acid 70 g, water 50 g, His 100 g, acidic substance/HIS 0.70 W/W, HIS concentration 45.5 % (W/W) in liquid, room temperature 24 hr): ∘ | solubility (Table 2: tartaric acid 60 g, water 50 g, His 90 g, acidic substance/HIS 0.67 W/W, pH before His addition 0.20, HIS concentration 45.0 % (W/W) in liquid, room temperature 24 hr): ∘ | solubility (Table 2: tartaric acid 60 g, water 50 g, His 100 g, acidic substance/HIS 0.60 W/W, pH before His addition 0.20, HIS concentration 47.6 % (W/W) in liquid, room temperature 24 hr): ∘ | solubility of histidine (Table 3: amount of histidine added to acidic aqueous solution (water 50 g, citric acid 60 g) reduced): fine | solubility (Table 3: citric acid 60 g, water 50 g, His 30 g, acidic substance/HIS 2.00 W/W, HIS concentration 21.4 % (W/W) in liquid, room temperature 24 hr): ◯ | solubility (Table 3: citric acid 60 g, water 50 g, His 50 g, acidic substance/HIS 1.20 W/W, HIS concentration 31.3 % (W/W) in liquid, room temperature 24 hr): ◯ | solubility (Table 3: citric acid 60 g, water 50 g, His 70 g, acidic substance/HIS 0.86 W/W, HIS concentration 38.9 % (W/W) in liquid, room temperature 24 hr): ◯ | solubility (Table 3: citric acid 60 g, water 50 g, His 90 g, acidic substance/HIS 0.67 W/W, HIS concentration 45.0 % (W/W) in liquid, room temperature 24 hr): ◯ | solubility (Table 4: citric acid 20.0 g, water 50 g, His 30 g, acidic substance/HIS 0.67 W/W, HIS concentration 30.0 % (W/W) in liquid, room temperature 24 hr): ◯ | solubility (Table 4: citric acid 33.3 g, water 50 g, His 50 g, acidic substance/HIS 0.67 W/W, HIS concentration 37.5 % (W/W) in liquid, room temperature 24 hr): ◯ | solubility (Table 4: citric acid 46.7 g, water 50 g, His 70 g, acidic substance/HIS 0.67 W/W, HIS concentration 42.0 % (W/W) in liquid, room temperature 24 hr): ◯ | solubility (Table 4: citric acid 60 g, water 50 g, His 90 g, acidic substance/HIS 0.67 W/W, HIS concentration 45.0 % (W/W) in liquid, room temperature 24 hr): ◯ | solubility of histidine (Table 4: histidine and acidic substance reduced at constant ratio, acidic substance/HIS=0.67 (w/w)): fine | solubility (Table 5 (*1): citric acid 60 g, water 27.8 g, His 50 g, acidic substance/HIS 1.20 W/W, HIS concentration 36.3 % (W/W) in liquid, HIS content 180 % (W/W) to water, room temperature 24 hr): ◯ | solubility (Table 5 (*2): citric acid 60 g, water 16.7 g, His 30 g, acidic substance/HIS 2.00 W/W, HIS concentration 28.1 % (W/W) in liquid, HIS content 180 % (W/W) to water): ◯ | solubility (Table 5: citric acid 60 g, water 38.9 g, His 70 g, acidic substance/HIS 0.86 W/W, HIS concentration 41.4 % (W/W) in liquid, HIS content 180 % (W/W) to water, room temperature 24 hr): ◯ | solubility (Table 5: citric acid 60 g, water 50 g, His 90 g, acidic substance/HIS 0.67 W/W, HIS concentration 45.0 % (W/W) in liquid, HIS content 180 % (W/W) to water, room temperature 24 hr): ◯ | solubility of histidine (Table 5: histidine and water reduced at constant ratio, histidine content to water=180% (w/w)): fine | solubility (Table 6: citric acid 2.7 g, water 37.3 g, His 10 g, acidic substance/HIS 0.27 W/W, HIS concentration 20.0 % (W/W) in liquid, room temperature 24 hr): ∘ | solubility (Table 6: citric acid 3.7 g, water 36.3 g, His 10 g, acidic substance/HIS 0.37 W/W, HIS concentration 20.0 % (W/W) in liquid, room temperature 24 hr): ∘ | solubility (Table 6: citric acid 4.7 g, water 35.3 g, His 10 g, acidic substance/HIS 0.47 W/W, HIS concentration 20.0 % (W/W) in liquid, room temperature 24 hr): ∘ | solubility (Table 6: citric acid 5.7 g, water 34.3 g, His 10 g, acidic substance/HIS 0.57 W/W, HIS concentration 20.0 % (W/W) in liquid, room temperature 24 hr): ∘ | solubility (Table 6: citric acid 6.7 g, water 33.3 g, His 10 g, acidic substance/HIS 0.67 W/W, HIS concentration 20.0 % (W/W) in liquid, room temperature 24 hr): ∘ | solubility (Table 6: malic acid 2.7 g, water 37.3 g, His 10 g, acidic substance/HIS 0.27 W/W, HIS concentration 20.0 % (W/W) in liquid, room temperature 24 hr): ∘ | solubility (Table 7: citric acid 6.0 g, water 29.0 g, His 15 g, acidic substance/HIS 0.40 W/W, HIS concentration 30.0 % (W/W) in liquid, room temperature 24 hr): ∘ | solubility (Table 7: citric acid 7.0 g, water 28.0 g, His 15 g, acidic substance/HIS 0.47 W/W, HIS concentration 30.0 % (W/W) in liquid, room temperature 24 hr): ∘ | solubility (Table 7: citric acid 8.0 g, water 27.0 g, His 15 g, acidic substance/HIS 0.53 W/W, HIS concentration 30.0 % (W/W) in liquid, room temperature 24 hr): ∘ | solubility (Table 7: citric acid 9.0 g, water 26.0 g, His 15 g, acidic substance/HIS 0.60 W/W, HIS concentration 30.0 % (W/W) in liquid, room temperature 24 hr): ∘ | solubility (Table 7: citric acid 10.0 g, water 25.0 g, His 15 g, acidic substance/HIS 0.67 W/W, HIS concentration 30.0 % (W/W) in liquid, room temperature 24 hr): ∘ | solubility (Table 7: malic acid 6.0 g, water 29.0 g, His 15 g, acidic substance/HIS 0.40 W/W, HIS concentration 30.0 % (W/W) in liquid, room temperature 24 hr): ∘ | solubility of histidine (citric acid, malic acid or tartaric acid as acidic substance, pH of not more than 1.0, amount corresponding to concentration of not less than 45 wt %): finely dissolved | solubility of histidine (histidine 20 wt %, 0.17 part by weight of acidic substance per 1 part by weight of histidine): not dissolved | solubility of histidine (histidine 20 wt %, not less than 0.27 part by weight of acidic substance per 1 part by weight of histidine): fine | solubility of histidine (histidine 30 wt %, 0.33 part by weight of acidic substance per 1 part by weight of histidine): not dissolved | solubility of histidine (histidine 30 wt %, not less than 0.40 part by weight of acidic substance per 1 part by weight of histidine): fine | histidine concentration of liquid composition that could be prepared (not less than 0.65 part by weight of citric acid, not less than 0.67 of malic acid, or not less than 0.60 of tartaric acid per 1 part by weight of histidine): not less than 45 wt %
Structure (SMILES): N[C@@H](Cc1c[nH]cn1)C(=O)O [HIS, histidine]
solubility of histidine (acetic acid or phosphoric acid as acidic substance, acidic aqueous solution pH of not more than 1.0, room temperature 24 hr): not dissolved or, even when dissolved, precipitated
